According to patent US7183100B2, “Aconitase” (priority 2003, dated 2007):

Experiments:
[1] = test system: PA01, FRD1 and mucoid clinical isolate strains (acnC or acnA disrupted); test: Growth on propanediol as carbon source; assay type: cell-based, P. aeruginosa; settings: all strains
Description: (§1) In addition to PA01, an additional mucosal strain, FRD1 with gentamicin resistance was subjected to disruption of the acnC gene, as was a mucoid clinical isolate. For comparison, aconitase A was also similarly disrupted. All of the strains behaved similarly in respect to their ability to grow on propanediol in the presence and absence of propionic acid.

FRD1 [2] = test: Reversal of propionate growth inhibition by TCA intermediates in M9 minimal media; assay type: cell-based, P. aeruginosa; settings: 0.4% propionate
Description: This effect was tested by supplementing M9 minimal media with various TCA cycle components in the presence of 0.4% propionate.

[3] = test system: acnC disrupted strain (PA01*); test: Growth on various carbon sources; assay type: cell-based, P. aeruginosa; settings: substance used as carbon source
Description: (§2) When tested for growth on various carbon sources, no difference was observed when glucose, glutamate, citrate, isocitrate, succinate, acetate, pyruvate, butyrate, hexonate, or glyoxalate was used as a carbon source.

FRD1 [4] = test: Effect of ibuprofen on growth of FRD1 (absorbance at 600 nm); assay type: cell-based, P. aeruginosa; settings: Pseudomonas aeruginosa, 2 ml LB cultures, read-out: percent inhibition of growth
Description: Ibuprofen is known to generate propionic acid when metabolized and was thus tested for its ability to inhibit the growth of FRD1. Other propionate-generating compounds include certain α4β1 integrin antagonists described by DuPlantier, A. J., et al., Bioorg. Med. Chem. Let. (2001) 11:2593–2596. Using absorbance at 600 nm as the criterion, growth inhibition was detected at a concentration of 0.5 mg/ml of ibuprofen added to 2 ml LB cultures; the percent inhibition at this level was 19%. Inhibition increased in a dose-dependent manner to 72% at 5 mg/ml, and was similar at 10 mg/ml (73%).

PA01 wildtype = test: Growth on various carbon sources; assay type: cell-based, P. aeruginosa; settings: substance used as carbon source
Description: as §2

PA01* [5] = test: Growth in TSBD plus 100 μM iron medium with propionate; assay type: cell-based, P. aeruginosa; settings: 0.05% propionate, with and without 50 mM glutamate, FIG. 3
PA01 [6] = test: Attachment of cells to plastic tubes (absorbance at 570 nm); assay type: cell-based, P. aeruginosa; settings: compared with FRD1
Description: (§3) As mucoid production is necessary for attachment, the effect on mucoid production of addition of propionate can be tested by assessing the level of attachment of the cells to plastic tubes. This was measured as the absorbance at 570 nm of plastic tubes.

FRD1 cells = test: as above; assay type: cell-based, P. aeruginosa; settings: as low as 0.1% propionate
Description: as §3

mucoid clinical isolates = test: Effect of propionate on growth of mucoid clinical isolates; assay type: cell-based; settings: low concentrations of propionate, FIG. 4, vs non-mucoid BH1 and revertant BAB
wildtype PA01 [7] = test: Growth in LB medium with 0.4% propionate; assay type: cell-based, P. aeruginosa
Description: (§4) The effect of the addition of 0.4% propionate to LB medium containing wildtype PA01, PA01*, and the more sensitive mucoid strain FRD1, was also tested.

PA01* [8] = test: Growth in LB medium with 0.4% propionate; assay type: cell-based, P. aeruginosa
Description: as §4

FRD1 [9] = test: Growth in LB medium with 0.4% propionate; assay type: cell-based, P. aeruginosa
Description: as §4

[10] = test system: FRD1 with disrupted aconitase C gene; test: Growth on propanediol with added propionic acid; assay type: cell-based, P. aeruginosa; settings: propanediol medium
Description: as §1

[11] = test system: PA01 with disrupted aconitase C gene; test: Growth on propanediol with added propionic acid; assay type: cell-based, P. aeruginosa; settings: propanediol medium
Description: as §1

PA01 [12] = test: Effect of propionate on antibiotic susceptibility (antibiotic discs); assay type: cell-based, P. aeruginosa; settings: 0.2% propionate; amikacin, carbenicillin, ciprofloxacin, tobramycin, tetracycline discs
Description: (§5) The effect of various concentrations of propionate on the ability of antibiotics to curtail the growth of PA01 or FRD1 was tested. Levels of 0.2% propionate appeared to have no effect on PA01 growth in the presence of the antibiotics amikacin, carbenicillin, ciprofloxacin, tobramycin, and tetracycline. Growth was assured by the diameter of colonies formed in the presence of discs containing amikacin (AN-30), 30 μg, carbenicillin (CB-100), 100 μg, ciprofloxacin (CIP-5), 5 μg, tobramycin (NN-10), 10 μg, or tetracycline (TE-30), 30 μg.

FRD1 [13] = test: as above; assay type: cell-based, P. aeruginosa; settings: 0.2% propionate
Description: as §5

wildtype PA01 [14] = test: Propionate inhibition of growth; assay type: cell-based, P. aeruginosa; settings: 0.4% propionate
Description: (§6) FRD1 is much more susceptible to propionate inhibition than wildtype PA01. While PA01 is able to grow on 0.4% propionate, inhibition of FRD1 growth occurs at levels of 0.1% propionate and inhibition is complete as low as 0.2% propionate in the medium.

FRD1 [15] = test: Propionate inhibition of growth; assay type: cell-based, P. aeruginosa; settings: in the medium
Description: as §6

Structure (SMILES): CC(O)CO (stereo not drawn) [1,2-propanediol]
- ability to grow on carbon source [1]: able to grow

Structure (SMILES): OCCCO [1,3-propanediol]
- ability to grow on carbon source [1]: less able to grow

Structure (SMILES): CC(=O)O [acetate]
- reversal of negative effects of propionate on growth (FRD1 [2]): successful
- difference in growth between wildtype and acnC disrupted strain [3]: no difference

Structure (SMILES): O=C(O)CC(O)(CC(=O)O)C(=O)O [citrate]
- difference in growth between wildtype and acnC disrupted strain [3]: no difference

Structure (SMILES): N[C@@H](CCC(=O)O)C(=O)O [glutamate]
- reversal of negative effects of propionate on growth (FRD1 [2]): successful
- difference in growth between wildtype and acnC disrupted strain [3]: no difference

Structure (SMILES): O=CC(=O)O [glyoxalate]
- difference in growth between wildtype and acnC disrupted strain [3]: no difference

Structure (SMILES): CCCCCC(=O)O [hexanoate, hexanoic acid]
- difference in growth between wildtype and acnC disrupted strain [3]: no difference

Structure (SMILES): CC(C)Cc1ccc(C(C)C(=O)O)cc1 (stereo not drawn) [ibuprofen, Ibuprofen]
- inhibition at 500 µg/mL (FRD1 [4]; 0.5 mg/ml): 19%
- inhibition at 5000 µg/mL (FRD1 [4]; 5 mg/ml): 72%
- inhibition at 10000 µg/mL (FRD1 [4]; 10 mg/ml): 73%

Structure (SMILES): O=C(O)CC(O)C(=O)O (stereo not drawn) [malate]
- reversal of negative effects of propionate on growth (FRD1 [2]): successful

Structure (SMILES): CCCCC(=O)O [pentanoate, pentanoic acid]
- growth of acnC disrupted strain on carbon source [3]: did not grow
- growth of wildtype on carbon source (PA01 wildtype): grow well

Structure (SMILES): CCC(=O)O [propionate, propionic acid]
- growth as compared to wildtype (PA01* [5]): growth is diminished
- effect on attachment to plastic tubes (PA01 [6]): less dramatic
- effect on attachment to plastic tubes (FRD1 cells): diminish significantly
- growth inhibition (mucoid clinical isolates): substantial growth inhibition
- response of growth (wildtype PA01 [7]): does not respond
- response of growth (PA01* [8]): diminished growth
- response of growth (FRD1 [9]): diminished growth
- growth of acnC disrupted strain on carbon source [3]: did not grow
- growth of wildtype on carbon source (PA01 wildtype): grow well
- ability to grow after addition of propionic acid [10]: completely abolished
- ability to grow after addition of propionic acid [11]: completely abolished
- effect on growth in the presence of antibiotics (PA01 [12]): no effect
- effect on growth inhibition by antibiotics (FRD1 [13]; CB-100 and CIP-5 discs): diminish the effect
- effect on efficiency of antibiotics (FRD1 [13]; remaining antibiotics (amikacin, tobramycin, tetracycline)): little, if any, effect
- growth on propionate (wildtype PA01 [14]): able to grow
- propionate level at which inhibition of growth is complete (FRD1 [15]): 0.2%
- propionate level at which inhibition of growth occurs (FRD1 [15]): 0.1%

Structure (SMILES): O=C(O)CCC(=O)O [succinate]
- difference in growth between wildtype and acnC disrupted strain [3]: no difference
